# Source: patent US5110904A (Abbott Laboratories, priority 1990, dated 1992)
# Starred links: 1 amine or outer side, 2 acyl side, 3 side chain; linkers in the order of their positions; H or OH if unused. Non-standard residues stand in square brackets, D forms with d. Residues, ends and D or L forms follow the SMILES beside them. Groups on a side chain read outwards from the residue. *: point of attachment. dAla(4-thiazolyl) = N[C@H](Cc1cscn1)C(=O)O; dPhe(4-Cl) = N[C@H](Cc1ccc(Cl)cc1)C(=O)O; d1Nal = N[C@H](Cc1cccc2ccccc12)C(=O)O; d2Nal = N[C@H](Cc1ccc2ccccc2c1)C(=O)O; Lys(iPr) = CC(C)NCCCC[C@H](N)C(=O)O; NMeY = CN[C@@H](Cc1ccc(O)cc1)C(=O)O; d3Pal = N[C@H](Cc1cccnc1)C(=O)O; NMeL = CN[C@@H](CC(C)C)C(=O)O; pGlu = O=C1CC[C@@H](C(=O)O)N1; Nicotinoyl = O=C(c1cccnc1)*; NMeS = CN[C@@H](CO)C(=O)O; Morpholide = C1CN(*)CCO1; CO = O=C([*:1])[*:2]; azaGly = NNC(=O)O; Sar = CNCC(=O)O
# Experiments:
# [1] = molecular target: T1, LH release (Rattus norvegicus, UniProt P30969); assay: In vivo LH release in castrated rats; conditions: rat, iv, dose producing half-maximal LH release, i.v., time integrated LH response, read-out: ED50 ug/kg i.v.
# T1 sequence (P30969 1-327): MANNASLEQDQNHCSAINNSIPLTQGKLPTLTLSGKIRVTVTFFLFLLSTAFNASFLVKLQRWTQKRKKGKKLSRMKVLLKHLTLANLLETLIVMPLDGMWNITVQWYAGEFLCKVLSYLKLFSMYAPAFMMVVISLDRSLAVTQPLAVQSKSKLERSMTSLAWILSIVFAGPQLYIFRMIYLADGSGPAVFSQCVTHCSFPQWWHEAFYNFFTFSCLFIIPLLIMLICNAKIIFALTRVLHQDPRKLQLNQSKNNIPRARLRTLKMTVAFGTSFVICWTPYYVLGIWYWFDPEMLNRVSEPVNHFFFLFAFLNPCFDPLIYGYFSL
# Method: The compound to be tested is administered to castrated rats intraveneously and the serum LH concentration at various time points is measured by RIA. The time integrated LH response is calculated and the dose producing half-maximal LH release (ED50) is reported.
# [2] = molecular target: T1, LH release; assay: In vitro LH release from dissociated rat pituitary cells (agonists); format: cell-based; conditions: negative log of concentration producing half-maximal release of LH, 3 hours at 37° C.
# [3] = system: LH concentration in the blood; assay: In vivo LH inhibition in male castrate rats; design: species or system rat; conditions: AUC of log(LHt/LHi) over 24 hours, 30 ug/kg subcutaneous bolus
# Method: The compound to be tested is administered at 30 μg/kg subcutaneously by bolus injection to male castrate rats and blood samples are collected periodically over 24 hours. The AUC (area under the curve) of the LH supression data as a function of time is calculated using the formula log (LHt /LHi) wherein LHt is the LH concentration in the blood at time t and LHi is the initial baseline value for the concentration of LH in the blood. The AUC values are negative numbers.
# [4] = molecular target: T2, LHRH receptors (Rattus norvegicus, UniProt P30969); assay: Radioligand receptor binding assay, rat pituitary membranes; conditions: radioiodinated [D-Leu6-des Gly10]-LHRH ethyl amide 50 pM, 2 hours at 4° C., read-out: Receptor Binding pkI (converted)
# T2 sequence (P30969 1-327): T1 sequence (P30969 1-327)
# Method: The radioligand (50 pM), receptors, and compounds to be tested are coincubated for 2 hours at 4° C. Bound ligand is separated from free ligand via centrifugation and aspiration.
LH Release pD2 [2],Ki [4] [nM],Compound,ED50 [1] [µg/kg],AUC (24 hr. after 30 ug/kg) [3]
,0.0339,"CC(=O)N[C@H](Cc1ccc2ccccc2c1)C(=O)N[C@H](Cc1ccc(Cl)cc1)C(=O)N[C@H](Cc1cscn1)C(=O)N[C@@H](CO)C(=O)N(C)[C@@H](Cc1ccc(O)cc1)C(=O)N[C@H](CCCCNC(=O)c1cccnc1)C(=O)N[C@@H](CC(C)C)C(=O)N[C@@H](CCCCNC(C)C)C(=O)N1CCC[C@H]1C(=O)N[C@H](C)C(N)=O [Ex. 43, N-Ac-D-2-Nal-D-4-Cl-Phe-D-4-Thiaz-Ser-N-Me-Tyr-D-Lys-(N-epsilon-nicotinyl)-Leu-Lys(N-epsilon-isopropyl)-Pro-D-AlaNH2] (Ac-[d2Nal][dPhe(4-Cl)][dAla(4-thiazolyl)]S[NMeY][dK](Nicotinoyl)L[Lys(iPr)]P[dA]-NH2)",,-337
,0.0331,"CC(=O)N[C@H](Cc1ccc2ccccc2c1)C(=O)N[C@H](Cc1ccc(Cl)cc1)C(=O)N[C@H](Cc1cccnc1)C(=O)N[C@@H](CO)C(=O)N(C)[C@@H](Cc1ccc(O)cc1)C(=O)N[C@H](CCCCNC(=O)c1cccnc1)C(=O)N[C@@H](CC(C)C)C(=O)N[C@@H](CCCCNC(C)C)C(=O)N1CCC[C@H]1C(=O)N(C)CC(N)=O [Ex. 44, N-Ac-D-2-Nal-D-4-Cl-Phe-D-3-Pal-Ser-N-Me-Tyr-D-Lys(N-epsilon-nicotinyl)-Leu-Lys(N-epsilon-isopropyl)-Pro-SarNH2] (Ac-[d2Nal][dPhe(4-Cl)][d3Pal]S[NMeY][dK](Nicotinoyl)L[Lys(iPr)]P[Sar]-NH2)",,-571
,0.0447,"CC(=O)N(C)CC(=O)N[C@H](Cc1ccc(Cl)cc1)C(=O)N[C@H](Cc1cccc2ccccc12)C(=O)N[C@@H](CO)C(=O)N(C)[C@@H](Cc1ccc(O)cc1)C(=O)N[C@H](CCCCNC(=O)c1cccnc1)C(=O)N[C@@H](CC(C)C)C(=O)N[C@@H](CCCCNC(C)C)C(=O)N1CCC[C@H]1C(=O)N[C@H](C)C(N)=O [Ex. 63, N-Ac-Sar-D-4-Cl-Phe-D-1-Nal-Ser-N-Me-Tyr-D-Lys(N-epsilon-nicotinyl)-Leu-Lys(N-epsilon-isopropyl)-Pro-D-AlaNH2] (Ac-[Sar][dPhe(4-Cl)][d1Nal]S[NMeY][dK](Nicotinoyl)L[Lys(iPr)]P[dA]-NH2)",,-707
,0.0575,"CC(=O)NNC(=O)N[C@H](Cc1ccc(Cl)cc1)C(=O)N[C@H](Cc1cccc2ccccc12)C(=O)N[C@@H](CO)C(=O)N(C)[C@@H](Cc1ccc(O)cc1)C(=O)N[C@H](CCCCNC(=O)c1cccnc1)C(=O)N[C@@H](CC(C)C)C(=O)N[C@@H](CCCCNC(C)C)C(=O)N1CCC[C@H]1C(=O)N[C@H](C)C(N)=O [Ex. 65, N-Ac-alpha-Azagly-D-4-Cl-Phe-D-1-Nal-Ser-N-Me-Tyr-D-Lys(N-epsilon-nicotinyl)-Leu-Lys(N-epsilon-isopropyl)-Pro-D-AlaNH2] (Ac-[azaGly][dPhe(4-Cl)][d1Nal]S[NMeY][dK](Nicotinoyl)L[Lys(iPr)]P[dA]-NH2)",,-1114
,0.0302,"CC(=O)N[C@H](Cc1ccc2ccccc2c1)C(=O)N[C@H](Cc1ccc(Cl)cc1)C(=O)N[C@H](Cc1cccnc1)C(=O)N[C@@H](CO)C(=O)N(C)[C@@H](Cc1ccc(O)cc1)C(=O)N[C@H](CCCCNC(=O)c1cccnc1)C(=O)N(C)[C@@H](CC(C)C)C(=O)N[C@@H](CCCCNC(C)C)C(=O)N1CCC[C@H]1C(=O)N[C@H](C)C(N)=O [Ex. 67, N-Ac-D-2-Nal-D-4-Cl-Phe-D-3-Pal-Ser-N-Me-Tyr-D-Lys(N-epsilon-nicotinyl)-N-Me-Leu-Lys(N-epsilon-isopropyl)-Pro-D-AlaNH2] (Ac-[d2Nal][dPhe(4-Cl)][d3Pal]S[NMeY][dK](Nicotinoyl)[NMeL][Lys(iPr)]P[dA]-NH2)",,-400
,0.017,CC(=O)N[C@H](Cc1ccc2ccccc2c1)C(=O)N[C@H](Cc1ccc(Cl)cc1)C(=O)N[C@H](Cc1cccnc1)C(=O)N[C@@H](CO)C(=O)N(C)[C@@H](Cc1ccc(O)cc1)C(=O)N[C@H](CCCCNC(=O)N1CCOCC1)C(=O)N[C@@H](CC(C)C)C(=O)N[C@@H](CCCCNC(C)C)C(=O)N1CCC[C@H]1C(=O)N[C@H](C)C(N)=O [Ex. 69] (Ac-[d2Nal][dPhe(4-Cl)][d3Pal]S[NMeY][dK]([CO-Morpholide])L[Lys(iPr)]P[dA]-NH2),,-467

# The next lines start with the molecule.
Compound,LH Release pD2 [2],Ki [4] [nM],ED50 [1] [µg/kg],AUC (24 hr. after 30 ug/kg) [3]
"CCNC(=O)[C@@H]1CCCN1C(=O)[C@H](CCCNC(=N)N)NC(=O)[C@H](CC(C)C)NC(=O)[C@@H](CC(C)C)NC(=O)[C@H](Cc1ccc(O)cc1)NC(=O)[C@H](CO)N(C)C(=O)[C@H](Cc1c[nH]c2ccccc12)NC(=O)[C@H](Cc1c[nH]cn1)NC(=O)[C@@H]1CCC(=O)N1 [Ex. 1, (pyro)Glu-His-Trp-N-Me-Ser-Tyr-D-Leu-Leu-Arg-Pro-NHEt] ([pGlu]HW[NMeS]Y[dL]LRP-NHEt)",9.43,,7.2,
"CC(C)C[C@H](NC(=O)[C@@H](Cc1ccc2ccccc2c1)NC(=O)[C@H](Cc1ccc(O)cc1)NC(=O)[C@H](CO)N(C)C(=O)[C@H](Cc1c[nH]c2ccccc12)NC(=O)[C@H](Cc1c[nH]cn1)NC(=O)[C@@H]1CCC(=O)N1)C(=O)N[C@@H](CCCNC(=N)N)C(=O)N1CCC[C@H]1C(=O)NCC(N)=O [Ex. 3, (pyro)Glu-His-Trp-N-Me-Ser-Tyr-D-(2)-Nal-Leu-Arg-Pro-Gly-NH2]",,,0.129,
"CCNC(=O)[C@@H]1CCCN1C(=O)[C@H](CCCNC(=N)N)NC(=O)[C@H](CC(C)C)NC(=O)[C@@H](Cc1c[nH]c2ccccc12)NC(=O)[C@H](Cc1ccc(O)cc1)NC(=O)[C@H](CO)N(C)C(=O)[C@H](Cc1c[nH]c2ccccc12)NC(=O)[C@H](Cc1c[nH]cn1)NC(=O)CN(C)C(C)=O [Ex. 14, N-AcSar-His-Trp-N-Me-Ser-Tyr-D-Trp-Leu-Arg-Pro-NHEt] (Ac-[Sar]HW[NMeS]Y[dW]LRP-NHEt)",,,0.39,
"CCNC(=O)[C@@H]1CCCN1C(=O)[C@H](CCCNC(=N)N)NC(=O)[C@H](CC(C)C)NC(=O)[C@@H](Cc1c[nH]c2ccccc12)NC(=O)[C@H](Cc1ccc(O)cc1)NC(=O)[C@H](CO)N(C)C(=O)[C@H](Cc1c[nH]c2ccccc12)NC(=O)[C@H](Cc1c[nH]cn1)NC(=O)[C@@H]1CCC(=O)N1 [Ex. 15, (pyro)Glu-His-Trp-N-Me-Ser-Tyr-D-Trp-Leu-Arg-Pro-NHEt]",,,1.38,
"CC(=O)N[C@H](Cc1ccc2ccccc2c1)C(=O)N[C@H](Cc1ccc(Cl)cc1)C(=O)N[C@H](Cc1cccnc1)C(=O)N[C@@H](CO)C(=O)N(C)[C@@H](Cc1ccc(O)cc1)C(=O)N[C@H](CCCCNC(=O)c1cccnc1)C(=O)N[C@@H](CC(C)C)C(=O)N[C@@H](CCCCNC(C)C)C(=O)N1CCC[C@H]1C(=O)N[C@H](C)C(N)=O [Ex. 38, N-Ac-D-2-Nal-D-4-Cl-Phe-D-3-Pal-Ser-N-Me-Tyr-D-Lys(N-epsilon-nicotinyl)-Leu-Lys(N-epsilon-isopropyl)-Pro-D-AlaNH2] (Ac-[d2Nal][dPhe(4-Cl)][d3Pal]S[NMeY][dK](Nicotinoyl)L[Lys(iPr)]P[dA]-NH2)",,0.0316,,-1000
"CC(C)C[C@H](NC(=O)CNC(=O)[C@H](Cc1ccc(O)cc1)NC(=O)[C@H](CO)NC(=O)[C@H](Cc1c[nH]c2ccccc12)NC(=O)[C@H](Cc1c[nH]cn1)NC(=O)[C@@H]1CCC(=O)N1)C(=O)N[C@@H](CCCNC(=N)N)C(=O)N1CCC[C@H]1C(=O)NCC(N)=O [LHRH, reference compound]",,,100,
